Earlier results in patent US7026304B2, “2-alkylated-cyclodextrin derivatives: reversal agents for drug-induced neuromuscular block” (Akzo Nobel N.V., priority 2001, dated 2006).

Test system: steady-state neuromuscular block induced by the muscle relaxant rocuronium bromide (Roc)
Settings: anaesthetized guinea pigs, as already described in WO 01/12202, cited from earlier work

OC[C@H]1O[C@@H]2O[C@H]3[C@H](O)[C@@H](O)[C@@H](O[C@H]4[C@H](O)[C@@H](O)[C@@H](O[C@H]5[C@H](O)[C@@H](O)[C@@H](O[C@H]6[C@H](O)[C@@H](O)[C@@H](O[C@H]7[C@H](O)[C@@H](O)[C@@H](O[C@H]8[C@H](O)[C@@H](O)[C@@H](O[C@H]9[C@H](O)[C@@H](O)[C@@H](O[C@H]1[C@H](O)[C@H]2O)O[C@@H]9CO)O[C@@H]8CO)O[C@@H]7CO)O[C@@H]6CO)O[C@@H]5CO)O[C@@H]4CO)O[C@@H]3CO [γ-cyclodextrin]
ED50, dose producing 50% reversal of steady-state neuromuscular block (parent cyclodextrins for comparison): 4 µmol/kg
% max reversal (parent cyclodextrins): 104%
dose at maximum reversal (parent cyclodextrins): (47) μmol · kg^−1
